T1: rM3Ds (Rattus norvegicus, UniProt P08483, A177S/A238G/A489L/DEL261-437/DEL441-478/E258S/I253V/I483M/INS256[…]/K178L/K182A/K255R/K484R/K486H/L173F/L482A/M480V/R171S/R176Q/R179M/S481M/T174R/T181R/T257A/Y148C)
T1 sequence (P08483 with tags, fused parts or gaps Y148C/R171S/L173F/T174R/R176Q/A177S/K178L/R179M/T181R/K182A/A238G/I253V/K255R/INS256[…]/T257A/E258S/DEL261-437/DEL441-478/M480V/S481M/L482A/I483M/K484R/K486H/A489L): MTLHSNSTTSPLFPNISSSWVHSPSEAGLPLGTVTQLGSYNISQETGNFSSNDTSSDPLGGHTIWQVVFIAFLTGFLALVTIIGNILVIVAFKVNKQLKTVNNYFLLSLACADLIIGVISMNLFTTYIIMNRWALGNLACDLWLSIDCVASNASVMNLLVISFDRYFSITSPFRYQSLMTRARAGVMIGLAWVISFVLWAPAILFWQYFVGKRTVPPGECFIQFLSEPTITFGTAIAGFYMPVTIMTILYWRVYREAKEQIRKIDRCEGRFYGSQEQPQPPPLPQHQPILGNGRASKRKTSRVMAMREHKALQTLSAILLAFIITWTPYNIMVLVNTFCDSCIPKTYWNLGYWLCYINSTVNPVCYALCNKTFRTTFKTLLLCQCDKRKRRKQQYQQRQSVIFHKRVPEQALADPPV


Columns and labels:
[1] = Locomotion test in naive macaques without viral injection; assay type: in vivo; settings: DCZ 0.3 mg/kg i.m., FIG. 35A-35G
[2] = target: T1, rM3Ds
Method: Monkeys were continuously monitored by veterinarians after lesion.
Dyskinesia score criteria were: 0: Absent. 1: Mild, fleeting, present <30% of the observation period.
Each block included ten continuous trials.
Customized surface EMG electrodes were used for EMG recordings. […] The recording procedure was conducted immediately after DCZ infusions.

[3] = CSF concentration of DCZ by LC-MS; assay type: in vivo, macaques; settings: 24 hours after drug infusion, 0.3 mg/kg i.m., FIG. 24D
Source text: One month of washout was allowed before administration of DCZ.

[4] = Blood test of liver- and kidney-related factors during DCZ treatment; assay type: in vivo, macaques; settings: FIG. 36B-36F
Source text: FIG. 36A-36F depict effects of D1-MSN activation on dyskinesia-like behavior and health state-related blood factors in parkinsonian macaques. FIG. 36A illustrates quantitation of dyskinesia score at 2 months, 4 months, and 8 months after treatment with DCZ. n=3 monkeys per group.

[5] = target: T1, rM3Ds; experiment: In vivo electrophysiological recording in caudate/putamen of MPP+ lesioned macaques; set-up: rM3Ds; 2A-EYFP (C); host or cells: AAV8R12-transduced striatal D1-MSNs of mice and cynomolgus macaques (in vivo and acute slices)
Method: Electrophysiological recording was performed through a recording chamber while the monkey was anesthetized. Neural responses were recorded by a 16-channel linear probe (Plexon Inc, Uprobe) driven by a mechanical microdrive (Alpha Omega, FlexMT). Signals were passed through a head stage (Plexon Inc, HST/16V-G20 LN) and then split and filtered between 300 Hz and 5 kHz to identify spiking activity with an amplifier system (Plexon Inc, OmniPlex). Detected spikes were then sorted by commercially available software (Plexon Inc, Offline Sorter) for further analysis. To quantify the effect of CNO/DCZ injection, neural activity was recorded for 60 minutes following CNO/DCZ injection. The response time-course for each channel was obtained by counting the spikes within every 10-minute window and then normalizing to the maximal.
To determine the effect of CNO/DCZ injection on the direction of signal change, we performed Pearson correlation between neural responses and time using the ‘corr’ function in Matlab, which generates the correlation coefficient ‘r’ and significant level ‘p’. A neuron was considered to have “Increased” activity when r>0 and p<0.05; and considered to have “Decreased” activity when r<0 and p<0.05. Otherwise, neurons were considered to be “Unchanged” in their neural activities. The responses of all increased neurons were then averaged after being normalized by the maximal response (Crowe et al., 2014; Dai and Wang, 2018; Hirokawa et al., 2019) following CNO/DCZ injection, and then plotted as a function of time to generate the normalized population response.

[6] = system: striatonigral projection neurons (striatal MSNs); experiment: Retrograde labeling of striatal MSNs after AAV injection into the SNr (EYFP+ cell counting); assay type: in vivo, mice; settings: for labeled striatonigral projection neurons (FIG. 2C): SNr injection, wild type mice, n=3, mean±SEM
Source text: Brain profiles of two epigenetic marks for enhancers and promoters, monomethylation of histone H3 lysine 4 (H3K4me1) and acetylation of histone H3 lysine 27 (H3K27ac) were checked and approximately 2 kilobase-long sequences around the transcriptional start site (TSS) that have high levels of H3K4me1 and/or H3K27ac were identified in mouse brain. Homologous sequences at equivalent positions of the human genome were then cloned onto an AAV backbone, and the activity of the homologous sequences in directing reporter expression was tested in mice after injections of AAVs into the SNr (FIG. 3A-C, TABLE 3).
Mice were anesthetized with sodium pentobarbital (Nembutal; 80 mg/kg, i.p.), and then placed into a stereotaxic device (KOPF). Eye cream was applied on both corneas to avoid dehydration. The skull above the targeted areas was thinned with a dental drill and carefully removed. Injections were conducted with a 10 μL syringe connected to a 33-Gauge needle (Neuros; Hamilton), using a microsyringe pump (Legato 130, KD Scientific). A total volume of 200 nL virus was injected into the SNr at a speed of 20 nL/min. The coordinates for the SNr were 3.4 mm posterior, 1.3 mm lateral, 4.8 mm ventral to the bregma.
Images were acquired using a confocal microscope (Carl Zeiss, LSM880) and an Axiolmager.Z1 microscope with apotome (Carl Zeiss). Brain structures were identified microscopically and in digital photos using a mouse brain atlas. To analyze the number of EYFP+ cells in the striatum, slices from rostral to caudal striatum were used. Every sixth section was analyzed, and numbers of EYFP+ cells were multiplied by six to acquire the approximate total number and mean number of cells per animal. Images were processed using ImageJ (NIH, USA), and final quantifications were independently performed manually by two blinded experimenters.

[7] = system: MSNs in nucleus accumbens; experiment: Retrograde labeling of accumbal MSNs after delivery into ventral pallidum or lateral hypothalamus; assay type: in vivo, mouse; settings: stereotaxic delivery into ventral pallidum or lateral hypothalamus

Molecule | motor-related behaviors in naïve monkeys [1] | efficacy after extended prior L-Dopa administration ([2]; 4 months prior L-Dopa, 1 month washout, FIG. 24F-24L) | alleviation of parkinsonian symptoms over long-term treatment ([2]; 8-month continuous treatment with DCZ) | motor skills ([2]; DCZ, hand to mouth movement) | alleviation of symptoms after each dose at steady-state efficacy ([2]; FIG. 24C) | parkinsonian symptoms ([2]; MPP+ macaques with AAV8R12-G88P7-rM3Ds-2A-EYFP, DCZ 0.3 mg/kg i.m., L-Dopa/benserazide 20/5 mg/kg/day oral) | tremor ([2]; after DCZ treatment, EMG) | speed of reversal of symptoms ([2]; initial phase of drug administration, FIG. 24B) | dyskinesia ([2]; long-term treatment) | duration of effect (FIG. 18C) ([2]; n=3 monkeys) | spontaneous movement in an observation cage ([2]; systemic DCZ) | DCZ levels in cerebrospinal fluid [3] | blood levels of common liver- and kidney-related factors (ALT, AST, GGT, CREA, BUN) [4] | caudate/putamen cells activated (FIG. 15G) ([5]; CNO 36 cells, DCZ 31 cells, saline 17.9%) [%] | caudate/putamen cells inactivated (FIG. 15G) ([5]; saline 33.4%) [%] | caudate/putamen cells unchanged (FIG. 15G) ([5]; saline 48.7%) [%] | labeled striatonigral projection neurons (FIG. 2C) [6] | labeling of MSNs in nucleus accumbens [7] | Labeling Efficiency in Striatonigral Pathway ([6]; AAV8R capsid mutants, numbers of labeled neurons per animal) | times EYFP positive / labeled MSNs compared to rAAV2-retro ([6]; after nigral delivery, hSyn-EYFP) [times]
CN1CCN(C2=Nc3ccccc3Nc3ccccc32)CC1 [DCZ, deschloroclozapine] | did not alter motor-related behaviors | did not affect the efficacy of DCZ treatment or the absence of dyskinesia | appeared to be consistent | a significant recovery of motor skills | at least 24 hours | a reversal of canonical parkinsonian symptoms in all tested monkeys | great reduced or even eliminated | faster reversal of symptoms than levodopa | dyskinesia-free | over 24 hr | an increase in spontaneous movement | no detectable levels | remained stable | 41.9 | 9.7 | 48.4 |  |  |  | 
AAV8R: AAV8 capsid with N385D, insertion of SEQ ID NO: 31 at position 588 and TS to IN mutation (SEQ ID NO: 1) (protein) MAADGYLPDWLEDNLSEGIREWWALKPGAPKPKANQQKQDDGRGLVLPGYKYLGPFNGLDKGEPVNAADAAALEHDKAYDQQLQAGDNPYLRYNHADAEFQERLQEDTSFGGNLGRAVFQAKKRVLEPLGLVEEGAKTAPGKKRPVEPSPQRSPDSSTGIGKKGQQPARKRLNFGQTGDSESVPDPQPLGEPPAAPSGVGPNTMAAGGGAPMADNNEGADGVGSSSGNWHCDSTWLGDRVITTSTRTWALPTYNNHLYKQISNGTSGGATNDNTYFGYSTPWGYFDFNRFHCHFSPRDWQRLINNNWGFRPKRLSFKLFNIQVKEVTQNEGTKTIANNLTSTIQVFTDSEYQLPYVLGSAHQGCLPPFPADVFMIPQYGYLTLNDGSQAVGRSSFYCLEYFPSQMLRTGNNFQFTYTFEDVPFHSSYAHSQSLDRLMNPLIDQYLYYLSRTQTTGGTANTQTLGFSQGGPNTMANQAKNWLPGPCYRQQRVSTTTGQNNNSNFAWTAGTKYHLNGRNSLANPGIAMATHKDDEERFFPSNGILIFGKQNAARDNADYSDVMLTSEEEIKTTNPVATEEYGIVADNLQRGNLADQDYTKTARQAATADVNSQGALPGMVWQNRDVYLQGPIWAKIPHTDGNFHPSPLMGGFGLKHPPPQILIKNTPVPADPPTTFNQSKLNSFITQYSTGQVSVEIEWELQKENSKRWNPEIQYTSNYYKSINVDFAVNTEGVYSEPRPIGTRYLTRNL |  |  |  |  |  |  |  |  |  |  |  |  |  |  |  |  | 10092±463.9 | robust labeling |  | 
AAV8R12: AAV8R capsid mutant V183E + N411S (SEQ ID NO: 13; SEQ ID NO: 59) (protein) MAADGYLPDWLEDNLSEGIREWWALKPGAPKPKANQQKQDDGRGLVLPGYKYLGPFNGLDKGEPVNAADAAALEHDKAYDQQLQAGDNPYLRYNHADAEFQERLQEDTSFGGNLGRAVFQAKKRVLEPLGLVEEGAKTAPGKKRPVEPSPQRSPDSSTGIGKKGQQPARKRLNFGQTGDSESEPDPQPLGEPPAAPSGVGPNTMAAGGGAPMADNNEGADGVGSSSGNWHCDSTWLGDRVITTSTRTWALPTYNNHLYKQISNGTSGGATNDNTYFGYSTPWGYFDFNRFHCHFSPRDWQRLINNNWGFRPKRLSFKLFNIQVKEVTQNEGTKTIANNLTSTIQVFTDSEYQLPYVLGSAHQGCLPPFPADVFMIPQYGYLTLNDGSQAVGRSSFYCLEYFPSQMLRTGNSFQFTYTFEDVPFHSSYAHSQSLDRLMNPLIDQYLYYLSRTQTTGGTANTQTLGFSQGGPNTMANQAKNWLPGPCYRQQRVSTTTGQNNNSNFAWTAGTKYHLNGRNSLANPGIAMATHKDDEERFFPSNGILIFGKQNAARDNADYSDVMLTSEEEIKTTNPVATEEYGIVADNLQRGNLADQDYTKTARQAATADVNSQGALPGMVWQNRDVYLQGPIWAKIPHTDGNFHPSPLMGGFGLKHPPPQILIKNTPVPADPPTTFNQSKLNSFITQYSTGQVSVEIEWELQKENSKRWNPEIQYTSNYYKSINVDFAVNTEGVYSEPRPIGTRYLTRN |  |  |  |  |  |  |  |  |  |  |  |  |  |  |  |  | 16026±1654 | robust labeling | +++ (10k-25k) | 7.72±0.78

— patent publication US20250381307A1, “RETRO-AAV AND USE IN TREATING NEURODEGENERATIVE DISEASES” (priority 2023, published 2025)
